PMC9963398, “Discovery of New Quinolone-Based Diarylamides as Potent B-RAF^V600E/C-RAF Kinase Inhibitors Endowed with Promising In Vitro Anticancer Activity” (International Journal of Molecular Sciences, 2023)

Key:
[1] = tested on: SNB-19; test: NCI-60 five-dose SRB assay; type: cell-based; conditions: Homo sapiens; SNB-19, CNS cancer, five-dose test
Procedure: (§1) The anticancer screening of target compounds over a full panel of 60 human cancer cell lines was carried out using Sulforhodamine B (SRB) assay at the National Cancer Institute (NCI), Bethesda, Maryland, USA, employing the standard protocol.

[2] = tested on: HL-60(TB); test: NCI-60 five-dose SRB assay; type: cell-based; conditions: Homo sapiens, Leukemia, five-dose test
Procedure: as §1

[3] = tested on: SW-620; test: NCI-60 five-dose SRB assay; type: cell-based; conditions: Homo sapiens; SW-620, Colon cancer, five-dose test
Procedure: as §1

[4] = tested on: DU-145; test: NCI-60 five-dose SRB assay; type: cell-based; conditions: Homo sapiens; DU-145, Prostate cancer, five-dose test
Procedure: as §1

[5] = tested on: KM12; test: NCI-60 five-dose SRB assay; type: cell-based; conditions: Homo sapiens; KM12, Colon cancer, five-dose test
Procedure: as §1

[6] = tested on: RPMI-8226; test: NCI-60 five-dose SRB assay; type: cell-based; conditions: Homo sapiens; RPMI-8226, Leukemia, five-dose test
Procedure: as §1

[7] = tested on: HOP-92; test: NCI-60 five-dose SRB assay; type: cell-based; conditions: Homo sapiens; HOP-92, NSCL cancer, five-dose test
Procedure: as §1

[8] = tested on: TK-10; test: NCI-60 five-dose SRB assay; type: cell-based; conditions: Homo sapiens; TK-10, Renal cancer, five-dose test
Procedure: as §1

[9] = tested on: SK-MEL-2; test: NCI-60 five-dose SRB assay; type: cell-based; conditions: Homo sapiens; SK-MEL-2, Melanoma, five-dose test
Procedure: as §1

[10] = tested on: A549/ATCC; test: NCI-60 five-dose SRB assay; type: cell-based; conditions: Homo sapiens, NSCL cancer, five-dose test
Procedure: as §1

[11] = tested on: NCI-H322M; test: NCI-60 five-dose SRB assay; type: cell-based; conditions: Homo sapiens, NSCL cancer, five-dose test
Procedure: as §1

[12] = tested on: ACHN; test: NCI-60 five-dose SRB assay; type: cell-based; conditions: Homo sapiens, Renal cancer, five-dose test
Procedure: as §1

[13] = tested on: M14; test: NCI-60 five-dose SRB assay; type: cell-based; conditions: Homo sapiens; M14, Melanoma, five-dose test
Procedure: as §1

[14] = tested on: LOX IMVI; test: NCI-60 five-dose SRB assay; type: cell-based; conditions: Homo sapiens, Melanoma, five-dose test
Procedure: as §1

[15] = tested on: BT-549; test: NCI-60 five-dose SRB assay; type: cell-based; conditions: Homo sapiens; BT-549, Breast cancer, five-dose test
Procedure: as §1

[16] = tested on: SF-268; test: NCI-60 five-dose SRB assay; type: cell-based; conditions: Homo sapiens; SF-268, CNS cancer, five-dose test
Procedure: as §1

[17] = tested on: SK-MEL-5; test: NCI-60 five-dose SRB assay; type: cell-based; conditions: Homo sapiens; SK-MEL-5, Melanoma, five-dose test
Procedure: as §1

[18] = tested on: NCI-H226; test: NCI-60 five-dose SRB assay; type: cell-based; conditions: Homo sapiens; NCI-H226, NSCL cancer, five-dose test
Procedure: as §1

[19] = tested on: HOP-62; test: NCI-60 five-dose SRB assay; type: cell-based; conditions: Homo sapiens; HOP-62, NSCL cancer, five-dose test
Procedure: as §1

[20] = tested on: IGROV1; test: NCI-60 five-dose SRB assay; type: cell-based; conditions: Homo sapiens, IGROV-1; IGROV1, Ovarian cancer, five-dose test
Procedure: as §1

[21] = tested on: MCF7; test: NCI-60 five-dose SRB assay; type: cell-based; conditions: Homo sapiens; MCF7, Breast cancer, five-dose test
Procedure: as §1

[22] = tested on: SF-539; test: NCI-60 five-dose SRB assay; type: cell-based; conditions: Homo sapiens; SF-539, CNS cancer, five-dose test
Procedure: as §1

[23] = tested on: UACC-62; test: NCI-60 five-dose SRB assay; type: cell-based; conditions: Homo sapiens; UACC-62, Melanoma, five-dose test
Procedure: as §1

[24] = tested on: HCT-15; test: NCI-60 five-dose SRB assay; type: cell-based; conditions: Homo sapiens; HCT-15, Colon cancer, five-dose test
Procedure: as §1

[25] = tested on: UO-31; test: NCI-60 five-dose SRB assay; type: cell-based; conditions: Homo sapiens; UO-31, Renal cancer, five-dose test
Procedure: as §1

[26] = tested on: CAKI-1; test: NCI-60 five-dose SRB assay; type: cell-based; conditions: Homo sapiens; CAKI-1, Renal cancer, five-dose test
Procedure: as §1

[27] = tested on: NCI-H522; test: NCI-60 five-dose SRB assay; type: cell-based; conditions: Homo sapiens; NCI-H522, NSCL cancer, five-dose test
Procedure: as §1

[28] = tested on: HCT-116; test: NCI-60 five-dose SRB assay; type: cell-based; conditions: Homo sapiens; HCT-116, Colon cancer, five-dose test
Procedure: as §1

[29] = tested on: HS 578T; test: NCI-60 five-dose SRB assay; type: cell-based; conditions: Homo sapiens, Breast cancer, five-dose test
Procedure: as §1

[30] = tested on: MALME-3M; test: NCI-60 five-dose SRB assay; type: cell-based; conditions: Homo sapiens, Melanoma, five-dose test
Procedure: as §1

[31] = tested on: K-562; test: NCI-60 five-dose SRB assay; type: cell-based; conditions: Homo sapiens, K562; K-562, Leukemia, five-dose test
Procedure: as §1

[32] = tested on: MOLT-4; test: NCI-60 five-dose SRB assay; type: cell-based; conditions: Homo sapiens; MOLT-4, Leukemia, five-dose test
Procedure: as §1

[33] = tested on: HT29; test: NCI-60 five-dose SRB assay; type: cell-based; conditions: Homo sapiens, HT-29; HT29, Colon cancer, five-dose test
Procedure: as §1

[34] = tested on: SF-295; test: NCI-60 five-dose SRB assay; type: cell-based; conditions: Homo sapiens; SF-295, CNS cancer, five-dose test
Procedure: as §1

[35] = tested on: MDA-MB-435; test: NCI-60 five-dose SRB assay; type: cell-based; conditions: Homo sapiens; MDA-MB-435, Melanoma, five-dose test
Procedure: as §1

[36] = tested on: T-47D; test: NCI-60 five-dose SRB assay; type: cell-based; conditions: Homo sapiens, T47D, Breast cancer, five-dose test
Procedure: as §1

[37] = molecular target: T1, B-RAF^V600E (Homo sapiens, UniProt P15056, V600E); test: HotSpot kinase assay (RBC), B-RAF^V600E; type: biochemical; conditions: 10 µM ATP, 10-dose singlicate IC50 mode
T1 construct: purchased Reaction Biology Corporation (RBC), Kinase HotSpot service

[38] = molecular target: C-RAF (Homo sapiens, UniProt P04049); test: HotSpot kinase assay (RBC), C-RAF; conditions: IC50 C-RAF, 10 µM ATP, 10-dose singlicate IC50 mode
From the text: Reaction Biology Corporation (RBC) Kinase HotSpotSM service was utilized for cell-free biochemical kinase evaluation of the target compounds according to the reported assay protocol [46].

[39] = tested on: MDA-MB-231/ATCC; test: cells; conditions: Homo sapiens
Procedure: as §1

[40] = tested on: PC-3; test: cells; conditions: Homo sapiens
Procedure: as §1

[41] = tested on: MDA-MB-468; test: cells; conditions: Homo sapiens
Procedure: as §1

[42] = tested on: SR; test: NCI-60 five-dose SRB assay; type: cell-based; conditions: Homo sapiens, Leukemia, five-dose test
Procedure: as §1

T1 sequence (P15056 whole entry V600E): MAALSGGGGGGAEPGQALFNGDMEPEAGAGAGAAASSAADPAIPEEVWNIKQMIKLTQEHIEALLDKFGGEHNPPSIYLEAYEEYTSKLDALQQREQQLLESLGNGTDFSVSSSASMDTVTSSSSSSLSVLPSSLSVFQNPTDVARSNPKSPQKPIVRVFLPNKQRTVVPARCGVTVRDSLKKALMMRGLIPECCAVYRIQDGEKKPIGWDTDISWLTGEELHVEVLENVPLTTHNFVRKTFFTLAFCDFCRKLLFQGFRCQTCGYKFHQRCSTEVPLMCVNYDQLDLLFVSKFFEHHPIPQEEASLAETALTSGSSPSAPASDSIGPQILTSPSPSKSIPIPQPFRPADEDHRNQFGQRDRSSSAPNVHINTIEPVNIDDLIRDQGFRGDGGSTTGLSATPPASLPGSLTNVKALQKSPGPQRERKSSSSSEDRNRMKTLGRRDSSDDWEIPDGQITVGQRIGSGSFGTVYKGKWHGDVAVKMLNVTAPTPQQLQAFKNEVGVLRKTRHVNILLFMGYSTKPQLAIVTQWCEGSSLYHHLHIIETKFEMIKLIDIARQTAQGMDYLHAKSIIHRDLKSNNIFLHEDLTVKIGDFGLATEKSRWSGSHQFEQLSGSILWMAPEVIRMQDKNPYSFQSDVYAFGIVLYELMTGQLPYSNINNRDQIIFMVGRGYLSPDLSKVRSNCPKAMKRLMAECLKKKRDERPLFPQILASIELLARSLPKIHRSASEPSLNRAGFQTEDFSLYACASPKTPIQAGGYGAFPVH
Sequence of C-RAF (P04049 whole entry): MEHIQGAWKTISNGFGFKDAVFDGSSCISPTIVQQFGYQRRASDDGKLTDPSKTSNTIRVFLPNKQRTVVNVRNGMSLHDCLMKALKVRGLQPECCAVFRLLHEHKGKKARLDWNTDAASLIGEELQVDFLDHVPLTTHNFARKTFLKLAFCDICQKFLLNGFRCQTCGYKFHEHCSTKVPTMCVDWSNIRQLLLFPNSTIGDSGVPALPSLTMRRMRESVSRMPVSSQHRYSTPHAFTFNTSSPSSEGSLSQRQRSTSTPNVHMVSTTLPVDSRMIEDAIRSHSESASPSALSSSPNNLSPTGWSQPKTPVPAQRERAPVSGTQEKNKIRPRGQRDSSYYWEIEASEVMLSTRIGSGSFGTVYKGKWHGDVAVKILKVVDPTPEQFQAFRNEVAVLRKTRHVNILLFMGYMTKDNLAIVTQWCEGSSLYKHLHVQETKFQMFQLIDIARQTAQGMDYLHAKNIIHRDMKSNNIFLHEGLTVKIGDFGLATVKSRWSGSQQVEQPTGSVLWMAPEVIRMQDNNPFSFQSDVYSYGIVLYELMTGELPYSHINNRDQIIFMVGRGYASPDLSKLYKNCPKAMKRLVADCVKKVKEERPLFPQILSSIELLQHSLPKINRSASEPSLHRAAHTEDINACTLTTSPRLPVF

Work on CN1CCCN(Cc2ccc(C(=O)Nc3cccc(Nc4ccc5c(O)cccc5n4)c3)cc2C(F)(F)F)CC1 [Compound 17b, N-(3-((5-hydroxyquinolin-2-yl)amino)phenyl)-4-((4-methyl-1,4-diazepan-1-yl)methyl)-3-(trifluoromethyl)benzamide] yielded a GI50 [1] of 2.03 µM, a GI50 [2] of 2.35 µM and a GI50 [3] of 1.95 µM. The GI50 [4] was 3.27 µM, the GI50 [5] was 1.98 µM and the GI50 [6] was 2.89 µM. For the same compound, the GI50 [7] was 1.64 µM, the GI50 [8] was 2.8 µM and the GI50 [9] was 1.81 µM. For the same compound, the GI50 [10] was 3.63 µM, the GI50 [11] was 3.27 µM and the GI50 [12] was 1.92 µM. For the same compound, the GI50 [13] was 1.89 µM, the GI50 [14] was 1.63 µM and the GI50 [15] was 1.8 µM. The GI50 [16] was 2.14 µM, the GI50 [17] was 1.72 µM and the GI50 [18] was 16.7 µM. For the same compound, the GI50 [19] was 2.03 µM, the GI50 [20] was 2.56 µM and the GI50 [21] was 1.68 µM. For the same compound, the GI50 [22] was 1.7 µM, the GI50 [23] was 1.69 µM and the GI50 [24] was 1.93 µM. The GI50 [25] was 2.04 µM, the GI50 [26] was 1.79 µM and the GI50 [27] was 1.84 µM. The GI50 [28] was 1.62 µM, the GI50 [29] was 1.93 µM and the GI50 [30] was 1.7 µM. It also gave a GI50 [31] of 2.18 µM, a GI50 [32] of 2.11 µM and a GI50 [33] of 1.92 µM. The GI50 [34] was 1.67 µM, the GI50 [35] was 1.78 µM and the GI50 [36] was 3.46 µM. It also gave an IC50 [37] of 0.128 ± 5e-05 µM, an IC50 [38] of 0.0653 ± 0.0006 µM and a GI50 [39] of 1.65 µM. For the same compound, the GI50 [40] was 1.87 µM and the GI50 [41] was 1.66 µM.
Work on CN1CCCN(Cc2ccc(C(=O)Nc3cccc(Nc4ccc5cc(O)ccc5n4)c3)cc2C(F)(F)F)CC1 [Compound 18b, N-(3-((6-hydroxyquinolin-2-yl)amino)phenyl)-4-((4-methyl-1,4-diazepan-1-yl)methyl)-3-(trifluoromethyl)benzamide] yielded a GI50 [1] of 17 µM, a GI50 [2] of 11.9 µM and a GI50 [3] of 14.5 µM. For the same compound, the GI50 [4] was 16.9 µM, the GI50 [5] was 14.1 µM and the GI50 [6] was 11.4 µM. For the same compound, the GI50 [7] was 10.4 µM, the GI50 [8] was 18.5 µM and the GI50 [9] was 17.2 µM. For the same compound, the GI50 [10] was 16.2 µM, the GI50 [11] was 16.2 µM and the GI50 [12] was 19.7 µM. The GI50 [13] was 12.7 µM, the GI50 [14] was 12.1 µM and the GI50 [16] was 17.3 µM. It also gave a GI50 [17] of 16.1 µM, a GI50 [18] of 13.8 µM and a GI50 [19] of 17.8 µM. The GI50 [20] was 17.2 µM, the GI50 [21] was 9.83 µM and the GI50 [22] was 11.3 µM. The GI50 [23] was 15.9 µM, the GI50 [24] was 16.4 µM and the GI50 [25] was 15.2 µM. The GI50 [26] was 14.1 µM, the GI50 [27] was 17 µM and the GI50 [28] was 6.51 µM. The GI50 [29] was 14.8 µM, the GI50 [30] was 12.6 µM and the GI50 [31] was 1.18 µM. For the same compound, the GI50 [32] was 2.05 µM, the GI50 [33] was 13.3 µM and the GI50 [34] was 17.3 µM. For the same compound, the GI50 [35] was 10.4 µM, the GI50 [36] was 15.8 µM and the GI50 [42] was 1.89 µM. For the same compound, the IC50 [37] was 0.227 ± 0.00355 µM, the IC50 [38] was 0.161 ± 0.0301 µM and the GI50 [39] was 13.9 µM. The GI50 [40] was 13.1 µM and the GI50 [41] was 8.88 µM.
